US10800782B2, “Inhibitors of cellular metabolic processes” (Agios Pharmaceuticals, Inc., priority 2016, dated 2020)

Target: T1, MAT2A (Homo sapiens, UniProt P31153)
T1 construct: His6; made in house; host or cells: SF9 insect cells
Experiment: MAT2A biochemical assay (colorimetric inorganic phosphate detection, PiColorLock)
Settings: recombinant His6-tagged MAT2A 1 μg/ml; 60 minutes preincubation at 25° C.; L-Met 80 μM, ATP 100 μM; 60 minutes reaction; read at 623 nm; read-out: MAT2A Inhibition Score
In short: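 His6-tagged human MAT2A (SF9-expressed, 1 μg/ml) converting L-Met and ATP to SAM in Tris pH 8.0, 50 mM KCl, 15 mM MgCl2, 300 uM EDTA, 0.005% BSA; 60 min at room temperature. Released phosphate detected colorimetrically with malachite green phosphomolybdate. Ten-point, three-fold compound dilution series.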

T1 sequence (P31153 whole entry): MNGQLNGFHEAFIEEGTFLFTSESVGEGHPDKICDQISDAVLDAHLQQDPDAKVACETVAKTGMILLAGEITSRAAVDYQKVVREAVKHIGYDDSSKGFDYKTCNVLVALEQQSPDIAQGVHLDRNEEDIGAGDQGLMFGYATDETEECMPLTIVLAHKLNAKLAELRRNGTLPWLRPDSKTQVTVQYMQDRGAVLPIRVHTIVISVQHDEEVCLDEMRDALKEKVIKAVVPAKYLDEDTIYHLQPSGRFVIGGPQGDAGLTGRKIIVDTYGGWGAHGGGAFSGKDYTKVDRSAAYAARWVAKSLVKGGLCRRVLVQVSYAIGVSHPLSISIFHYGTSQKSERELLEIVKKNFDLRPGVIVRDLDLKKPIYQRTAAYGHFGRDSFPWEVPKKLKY

COc1ccc(-c2c(Nc3nccn3C)[nH]c3c(-c4ccccc4)c(-c4ccccc4)nn3c2=O)cc1 [Compound 141, 6-(4-methoxyphenyl)-5-(1-methyl-1H-imidazol-2-ylamino)-2,3-diphenylpyrazolo[1,5-a]pyrimidin-7(4H)-one]
IC50: < 100 nM

COc1ccc(-c2c(Nc3nonc3N)[nH]c3c(-c4ccccc4)c(-c4ccccc4)nn3c2=O)cc1 [Compound 149, 5-((4-amino-1,2,5-oxadiazol-3-yl)amino)-6-(4-methoxyphenyl)-2,3-diphenylpyrazolo[1,5-a]pyrimidin-7(4H)-one]
IC50: < 100 nM

O=C(Nc1[nH]c2c(-c3ccccc3)c(-c3ccccc3)nn2c(=O)c1-c1ccc2ncccc2c1)C1CC1 [Compound 326, N-(7-oxo-2,3-diphenyl-6-(quinolin-6-yl)-4,7-dihydropyrazolo[1,5-a]pyrimidin-5-yl)cyclopropanecarboxamide]
IC50: 1000 to 10000 nM

COc1ccc(-c2c(Oc3cccnn3)[nH]c3c(-c4ccccc4)c(-c4ccccc4)nn3c2=O)cc1 [Compound 354, 6-(4-methoxyphenyl)-2,3-diphenyl-5-(pyridazin-3-yloxy)pyrazolo[1,5-a]pyrimidin-7(4H)-one]
IC50: 1000 to 10000 nM

Cc1[nH]c2c(-c3ccccc3)c(-c3ccccc3F)nn2c(=O)c1-c1ccc2ncccc2c1 [Compound 205, 2-(2-fluorophenyl)-5-methyl-3-phenyl-6-(quinolin-6-yl)pyrazolo[1,5-a]pyrimidin-7(4H)-one]
IC50: < 100 nM

COc1ccc(-c2c(Nc3ccn[nH]3)[nH]c3c(C4=CCCCC4)c(-c4ccccc4)nn3c2=O)cc1 [Compound 189, 5-((1H-pyrazol-5-yl)amino)-3-(cyclohex-1-en-1-yl)-6-(4-methoxyphenyl)-2-phenyl pyrazolo[1,5-a]pyrimidin-7(4H)-one]
IC50: < 100 nM

Cc1[nH]c2c(N3CCCCC3)c(-c3ccccc3)nn2c(=O)c1-c1cn[nH]c1 [Compound 266, 5-methyl-2-phenyl-3-(piperidin-1-yl)-6-(1H-pyrazol-4-yl)pyrazolo[1,5-a]pyrimidin-7(4H)-one]
IC50: < 100 nM

CC(=O)Nc1[nH]c2c(-c3ccccc3)c(-c3ccccc3)nn2c(=O)c1-c1ccc2ncccc2c1 [Compound 172, N-(7-oxo-2,3-diphenyl-6-(quinolin-6-yl)-4,7-dihydropyrazolo[1,5-a]pyrimidin-5-yl)acetamide]
IC50: < 100 nM

COc1ccc(-c2c(C)[nH]c3c(C4=CCCOC4)c(-c4ccccc4)nn3c2=O)cc1 [Compound 219, 3-(5,6-dihydro-2H-pyran-3-yl)-6-(4-methoxyphenyl)-5-methyl-2-phenylpyrazolo[1,5-a]pyrimidin-7(4H)-one]
IC50: < 100 nM

NCCn1cc(-c2ccc3ncccc3c2)c(=O)n2nc(-c3ccccc3)c(-c3ccccc3)c12 [Compound 353, 4-(2-aminoethyl)-2,3-diphenyl-6-(quinolin-6-yl)pyrazolo[1,5-a]pyrimidin-7(4H)-one]
IC50: 1000 to 10000 nM

Cc1[nH]c2c(-c3ccccc3)c(-c3cc[nH]n3)nn2c(=O)c1-c1ccc2ncccc2c1 [Compound 280, 5-methyl-3-phenyl-2-(1H-pyrazol-3-yl)-6-(quinolin-6-yl)pyrazolo[1,5-a]pyrimidin-7(4H)-one]
IC50: < 100 nM

Cc1[nH]c2c(-c3ccccc3)c(-c3cc[nH]c3)nn2c(=O)c1-c1ccc2ncccc2c1 [Compound 252, 5-methyl-3-phenyl-2-(1H-pyrrol-3-yl)-6-(quinolin-6-yl)pyrazolo[1,5-a]pyrimidin-7(4H)-one]
IC50: < 100 nM

COc1ccc(-c2c(Nc3ncns3)[nH]c3c(-c4ccccc4)c(-c4ccccc4)nn3c2=O)cc1 [Compound 147, 5-((1,2,4-thiadiazol-5-yl)amino)-6-(4-methoxyphenyl)-2,3-diphenylpyrazolo[1,5-a]pyrimidin-7(4H)-one]
IC50: < 100 nM

O=c1c(-c2ccc3ncccc3c2)c(Nc2ccncn2)[nH]c2c(-c3ccccc3)c(-c3ccccc3)nn12 [Compound 169, 2,3-diphenyl-5-(pyrimidin-4-ylamino)-6-(quinolin-6-yl)pyrazolo[1,5-a]pyrimidin-7(4H)-one]
IC50: < 100 nM

COc1ccc(-c2c(O)[nH]c3c(-c4ccccc4)c(-c4ccccc4)nn3c2=O)cc1 [Compound 290, 5-hydroxy-6-(4-methoxyphenyl)-2,3-diphenylpyrazolo[1,5-a]pyrimidin-7(4H)-one]
IC50: < 100 nM

NCc1[nH]c2c(C3=CCCCC3)c(-c3ccccc3)nn2c(=O)c1-c1ccc2nccnc2c1 [Compound 234, 5-(aminomethyl)-3-(cyclohex-1-en-1-yl)-2-phenyl-6-(quinoxalin-6-yl)pyrazolo[1,5-a]pyrimidin-7(4H)-one]
IC50: < 100 nM

Cc1[nH]c2c(C3=CCCCC3)c(-c3ccccc3)nn2c(=O)c1-c1ccc(OCOP(=O)(O)O)cc1 [Compound 296, (4-(3-cyclohexenyl-5-methyl-7-oxo-2-phenyl-4,7-dihydropyrazolo[1,5-a]pyrimidin-6-yl)phenoxy)methyl dihydrogen phosphate]
IC50: < 100 nM

Cc1[nH]c2c(-c3ccccc3)c(-c3ccc(N)cc3)nn2c(=O)c1-c1ccc2ncccc2c1 [Compound 250, 2-(4-aminophenyl)-5-methyl-3-phenyl-6-(quinolin-6-yl)pyrazolo[1,5-a]pyrimidin-7(4H)-one]
IC50: < 100 nM

COc1ccc(-c2c(Nc3cccnn3)[nH]c3c(C4=CCCCC4)c(-c4ccccc4)nn3c2=O)cc1 [Compound 157, 3-(cyclohex-1-en-1-yl)-6-(4-methoxyphenyl)-2-phenyl-5-(pyridazin-3-ylamino)pyrazolo[1,5-a]pyrimidin-7(4H)-one]
IC50: < 100 nM

COc1ccc(-c2c(Nc3ccc(C#N)cn3)[nH]c3c(-c4ccccc4)c(-c4ccccc4)nn3c2=O)cc1 [Compound 104, 6-((6-(4-methoxyphenyl)-7-oxo-2,3-diphenyl-4,7-dihydropyrazolo[1,5-a]pyrimidin-5-yl)amino)nicotinonitrile]
IC50: < 100 nM

Cc1[nH]c2c(C3=CCCCC3)c(-c3ccccc3)nn2c(=O)c1-c1ccc(OP(=O)(O)O)cc1 [Compound 295, 4-(3-(cyclohex-1-en-1-yl)-5-methyl-7-oxo-2-phenyl-4,7-dihydropyrazolo[1,5-a]pyrimidin-6-yl)phenyl dihydrogen phosphate]
IC50: < 100 nM

Cc1[nH]c2c(-c3ccccc3)c(-c3ccncc3)nn2c(=O)c1-c1ccc2ncccc2c1 [Compound 348, 5-methyl-3-phenyl-2-(pyridin-4-yl)-6-(quinolin-6-yl)pyrazolo[1,5-a]pyrimidin-7(4H)-one]
IC50: 1000 to 10000 nM

COc1ccc(-c2c(Nc3cscn3)[nH]c3c(-c4ccccc4)c(-c4ccccc4)nn3c2=O)cc1 [Compound 192, 6-(4-methoxyphenyl)-2,3-diphenyl-5-(thiazol-4-ylamino)pyrazolo[1,5-a]pyrimidin-7(4H)-one]
IC50: < 100 nM

COc1ccc(-c2c(Nc3cn[nH]n3)[nH]c3c(-c4ccccc4)c(-c4ccccc4)nn3c2=O)cc1 [Compound 185, 5-((2H-1,2,3-triazol-4-yl)amino)-6-(4-methoxyphenyl)-2,3-diphenylpyrazolo[1,5-a]pyrimidin-7(4H)-one]
IC50: < 100 nM

Cc1[nH]c2c(-c3ccccc3)c(-c3ccccc3)nn2c(=O)c1-c1ccc2ncn(C)c2c1 [Compound 256, 5-methyl-6-(1-methyl-1H-benzo[d]imidazol-6-yl)-2,3-diphenylpyrazolo[1,5-a]pyrimidin-7(4H)-one]
IC50: < 100 nM

COc1cc(-c2c(C)[nH]c3c(-c4ccccc4)c(-c4ccccc4)nn3c2=O)ccc1O [Compound 259, 6-(4-hydroxy-3-methoxyphenyl)-5-methyl-2,3-diphenylpyrazolo[1,5-a]pyrimidin-7(4H)-one]
IC50: < 100 nM

COc1ccc(-c2c(CNC(=O)[C@@H](N)C(C)C)[nH]c3c(-c4ccccc4)c(-c4ccccc4)nn3c2=O)cc1 [Compound 340, (S)-2-amino-N-((6-(4-methoxyphenyl)-7-oxo-2,3-diphenyl-4,7-dihydropyrazolo[1,5-a]pyrimidin-5-yl)methyl)-3-methylbutanamide]
IC50: 100 to 1000 nM

Cc1[nH]c2c(N3CCCCC3)c(-c3ccccc3)nn2c(=O)c1-c1cccc(N)c1 [Compound 301, 6-(3-aminophenyl)-5-methyl-2-phenyl-3-(piperidin-1-yl)pyrazolo[1,5-a]pyrimidin-7(4H)-one]
IC50: 100 to 1000 nM

COc1ccc(-c2c(O)n(C)c3c(-c4ccccc4)c(-c4ccccc4)nn3c2=O)cc1 [Compound 274, 5-hydroxy-6-(4-methoxyphenyl)-4-methyl-2,3-diphenylpyrazolo[1,5-a]pyrimidin-7(4H)-one]
IC50: < 100 nM

COc1ccc(-c2c(Nc3nncs3)[nH]c3c(-c4ccccc4)c(-c4ccccc4)nn3c2=O)cc1 [Compound 144, 5-((1,3,4-thiadiazol-2-yl)amino)-6-(4-methoxyphenyl)-2,3-diphenylpyrazolo[1,5-a]pyrimidin-7(4H)-one]
IC50: < 100 nM

Cc1[nH]c2c(-c3ccccc3)c(-c3ccccc3)nn2c(=O)c1-c1ccc2ncncc2c1 [Compound 245, 5-methyl-2,3-diphenyl-6-(quinazolin-6-yl)pyrazolo[1,5-a]pyrimidin-7(4H)-one]
IC50: < 100 nM

NCc1[nH]c2c(C3=CCCCC3)c(-c3ccccc3)nn2c(=O)c1-c1ccc2c(c1)OCCO2 [Compound 226, 5-(aminomethyl)-3-(cyclohex-1-en-1-yl)-6-(2,3-dihydrobenzo[b][1,4]dioxin-6-yl)-2-phenylpyrazolo[1,5-a]pyrimidin-7(4H)-one]
IC50: < 100 nM

O=c1c(-c2ccc3nccnc3c2)c(CO)[nH]c2c(C3=CCCCC3)c(-c3ccccc3)nn12 [Compound 231, 3-(cyclohex-1-en-1-yl)-5-(hydroxymethyl)-2-phenyl-6-(quinoxalin-6-yl)pyrazolo[1,5-a]pyrimidin-7(4H)-one]
IC50: < 100 nM

COc1ccc(-c2c(Nc3ccon3)[nH]c3c(-c4ccccc4)c(-c4ccccc4)nn3c2=O)cc1 [Compound 138, 5-(isoxazol-3-ylamino)-6-(4-methoxyphenyl)-2,3-diphenylpyrazolo[1,5-a]pyrimidin-7(4H)-one]
IC50: < 100 nM
